Experimental data taken from patent US20230002352A1, “SULFONAMIDE DERIVATIVES AS CTPS1 INHIBITORS” (Step Pharma S.A.S., priority 2019, published 2023).
Where two headings read alike, the source gives them in different places.

Columns and labels:
[1] = target: T1, human CTPS1 (Homo sapiens, UniProt P17812); assay: Human CTPS1 enzyme inhibition (ADP-Glo Max assay); format: biochemical; details: read-out: CTPS1 (Human CTPS1 Enzyme Inhibition data grouped by potency range, IC50)
T1 construct: purchased Proteros biostructures GmbH
T1 sequence (P17812 1-591): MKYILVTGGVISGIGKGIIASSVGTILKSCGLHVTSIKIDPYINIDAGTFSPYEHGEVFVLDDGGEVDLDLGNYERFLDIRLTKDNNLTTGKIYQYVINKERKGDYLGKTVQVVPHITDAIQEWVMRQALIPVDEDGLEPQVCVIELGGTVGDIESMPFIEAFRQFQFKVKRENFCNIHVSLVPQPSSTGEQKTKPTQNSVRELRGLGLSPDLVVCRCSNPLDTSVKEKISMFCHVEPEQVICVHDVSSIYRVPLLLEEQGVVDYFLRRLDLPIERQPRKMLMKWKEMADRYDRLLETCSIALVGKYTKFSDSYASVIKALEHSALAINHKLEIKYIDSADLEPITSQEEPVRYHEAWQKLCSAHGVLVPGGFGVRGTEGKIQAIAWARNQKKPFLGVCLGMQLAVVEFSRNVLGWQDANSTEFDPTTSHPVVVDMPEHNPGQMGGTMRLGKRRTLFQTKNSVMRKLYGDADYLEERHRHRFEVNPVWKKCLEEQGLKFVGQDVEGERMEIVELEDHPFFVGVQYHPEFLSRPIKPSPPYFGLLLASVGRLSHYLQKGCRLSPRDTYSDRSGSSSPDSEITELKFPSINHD
Summary of the method: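 Full-length FLAG-His-tagged human CTPS1 and compound were preincubated 10 min at 25 °C in 50 mM Tris pH 8.0, 10 mM MgCl2, 0.01% Tween-20, 2 mM L-cysteine. Substrate mix: ATP 0.31 mM, GTP 0.034 mM, UTP 0.48 mM, glutamine 0.186 mM; linear-phase reaction at 25 °C. ADP-Glo Max luminescence; IC50 from inhibition curve.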

[2] = test system: human CTPS1 versus CTPS2; assay: Human CTPS1 versus CTPS2 selectivity assessment by RapidFire/MS analysis; format: biochemical
Experimental: Biological Example 2—RapidFire/MS-Based Enzyme Selectivity Assays.
Human CTPS1 Versus CTPS2 Selectivity Assessment by RapidFire/MS Analysis.
The enzyme inhibitory activities against each target isoform of interest may be determined for the compounds of the invention using an optimised RapidFire high-throughput mass spectrometry (RF/MS) assay format. RF/MS assays for both human CTPS1 and CTPS2 may be performed in assay buffer consisting of 50 mM HEPES (Merck), 20 mM MgCl2, 5 mM KCl, 1 mM DTT, 0.01% Tween-20, pH to 8.0 accordingly. Human full-length active C-terminal FLAG-His-tag CTPS1 (UniProtKB-P17812, CTPS[1-591]-[…]) may be obtained from Proteros biostructures GmbH. Human full length active C-terminal FLAG-His-Avi tagged CTPS2 (UniProtKB-Q9NRF8, CTPS2 [1-586]-[…]) may be obtained from Harker Bio.
Human CTPS (1 or 2) protein may be prepared in 1× assay buffer to the final working protein concentration required for the reaction. A 2 uL volume per well of 2×CTPS (1 or 2) protein may be mixed with 40 nL of compound using acoustic (ECHO) delivery and incubated for 10 minutes at 25° C. Each isoform enzymatic reaction may be subsequently initiated by addition of 2 uL per well of a 2× substrate mix in assay buffer. For hCTPS1: ATP (0.3 mM), UTP (0.2 mM), GTP (0.07 mM) and L-glutamine (0.1 mM). For hCTPS2: ATP (0.1 mM), UTP (0.04 mM), GTP (0.03 mM) and L-glutamine (0.1 mM). Each mixture may be incubated for an appropriate amount of time per isoform within the determined linear phase of the reaction at 25° C. A 60 uL volume of stop solution (1% formic acid with 0.5 uM ^13C9-^15N3-CTP in H2O) may be added and the plate immediately heat-sealed and centrifuged for 10 minutes at 4,000 rpm. Following centrifugation, plates may be loaded onto the Agilent RapidFire microfluidic solid phase extraction system coupled to an AP14000 triple quadrupole mass spectrometer (RF/MS) for analysis.
In all cases, the enzyme converts UTP to CTP. Highly specific and sensitive multiple reaction monitoring (MRM) MS methods may be optimised for the detection of the enzymatic reaction product, CTP, and the stable isotope labelled product standard ^13C9-^15N3-CTP. Readout for data analysis may be calculated as the ratio between the peak area of the product CTP and the internal standard ^13C9-^15N3-CTP. For data reporting, the following equation may be used: […]
For each screening plate, the means of the negative (DMSO) and positive control values were used for the calculation of the respective assay window (S/B) and Z′ values. The median of the respective control values was used for calculation of percent inhibition according to the following equation: […]
Percentage inhibition was then plotted against compound concentration, and the 50% inhibitory concentration (IC50) was determined from the resultant concentration-response curve.
Fold selectivity between CTPS1 and CTPS2 was subsequently calculated according to the following equation: […]

Row | SMILES | IC50 ([1]; Table 23, ADP-Glo Max assay) | Selectivity (fold selectivity between CTPS1 and CTPS2) ([2]; Table 26) | further results
1 | CCC(C(=O)Nc1ncc(-c2cncc(OC)n2)cc1F)c1ccnc(NS(=O)(=O)C2CC2)n1 (centres unmarked) [Example P158] | 100 to 1000 nM | + (2-30 fold (+)) | 
2 | CCOc1cncc(-c2ccc(NC(=O)C(CC)c3ccnc(NS(=O)(=O)C4CC4)n3)c(C)c2)n1 (centres unmarked) [Example P161] | ≤ 100 nM | + (2-30 fold (+)) | 
3 | CCOc1cncc(-c2cnc(NC(=O)C(CC)c3ccnc(NS(=O)(=O)C4CC4)n3)c(F)c2)n1 (centres unmarked) [Example P162] | ≤ 100 nM | ++ (>30-60 fold (++)) | 
4 | CCOc1cncc(-c2ccc(NC(=O)C(OC)c3ccnc(NS(=O)(=O)C4CC4)n3)cc2)n1 (centres unmarked) [Example P164] | ≤ 100 nM | + (2-30 fold (+)) | 
5 | CCOc1cncc(-c2ccc(NC(=O)C(C)(C)c3cncc(NS(=O)(=O)C4CC4)n3)cc2)n1 [Example P196] | ≤ 100 nM | +++ (>60 fold (+++)) | 
6 | CCOc1cncc(-c2ccc(NC(=O)C3(c4cncc(NS(=O)(=O)C5CC5)n4)CCOCC3)nc2)n1 [Example P197] | ≤ 100 nM | +++ (>60 fold (+++)) | 
7 | CC(C)Oc1cncc(-c2ccc(C(=O)NC(C)(C)c3cncc(NS(=O)(=O)C4CC4)n3)c(F)c2)n1 [Example P221] | 100 to 1000 nM | + (2-30 fold (+)) | 
8 | CC(C)(NC(=O)c1ccc(-c2cncc(C(F)(F)F)n2)cc1)c1cncc(NS(=O)(=O)C2CC2)n1 [Example P222] | 100 to 1000 nM | + (2-30 fold (+)) | 
9 | CCOc1cncc(-c2ccc(NC(=O)C3(c4ccnc(NS(=O)(=O)C5CC5)n4)CCC(=O)CC3)nc2)n1 [Example P226, 1-(2-(Cyclopropanesulfonamido)pyrimidin-4-yl)-N-(5-(6-ethoxypyrazin-2-yl)pyridin-2-yl)-4-oxocyclohexanecarboxamide] |  |  | IC50 ([1]; Table 24, ADP-Glo Max assay): ≤ 100 nM; Selectivity (fold selectivity between CTPS1 and CTPS2) ([2]; Table 27): +++ (>60 fold (+++))
10 | CCOc1cncc(-c2ccc(NC(=O)C3(c4ccnc(NS(=O)(=O)C5CC5)n4)CCC(F)(F)CC3)nc2)n1 [Example P242] |  |  | IC50 ([1]; Table 24, ADP-Glo Max assay): ≤ 100 nM; Selectivity (fold selectivity between CTPS1 and CTPS2) ([2]; Table 27): +++ (>60 fold (+++))
11 | CCOc1cncc(-c2ccc(NC(=O)C3(c4ccnc(NS(=O)(=O)C5CC5)n4)CCC4(CC3)OCCO4)nc2)n1 [Example P244, 8-(2-(cyclopropanesulfonamido)pyrimidin-4-yl)-N-(5-(6-ethoxypyrazin-2-yl)pyridin-2-yl)-1,4-dioxaspiro[4.5]decane-8-carboxamide] |  |  | IC50 ([1]; Table 24, ADP-Glo Max assay): ≤ 100 nM; Selectivity (fold selectivity between CTPS1 and CTPS2) ([2]; Table 27): +++ (>60 fold (+++))
12 | CCOc1cncc(-c2ccc(NC(=O)C3(c4ccnc(NS(=O)(=O)C5CC5)n4)CCN(S(C)(=O)=O)CC3)nc2)n1 [Example P251] |  |  | IC50 ([1]; Table 24, ADP-Glo Max assay): ≤ 100 nM; Selectivity (fold selectivity between CTPS1 and CTPS2) ([2]; Table 27): +++ (>60 fold (+++))
13 | CCOc1cncc(-c2ccc(NC(=O)C3(c4ccnc(NS(=O)(=O)CC#N)n4)CCOCC3)nc2)n1 [Example P287, 4-(2-((cyanomethyl)sulfonamido)pyrimidin-4-yl)-N-(5-(6-ethoxypyrazin-2-yl)pyridin-2-yl)tetrahydro-2H-pyran-4-carboxamide] |  |  | IC50 ([1]; Table 25, compounds where R1 is substituted by CN): ≤ 100 nM; CTPS1 (Selectivity data) ([2]; Table 28, compounds where R1 is substituted by CN): +++ (>60 fold (+++))

More lines, main results first:

Row | IC50 ([1]; Table 23, ADP-Glo Max assay) | SMILES | Selectivity (fold selectivity between CTPS1 and CTPS2) ([2]; Table 26) | further results
14 | ≤ 100 nM | CCC(C(=O)Nc1ccc(-c2cncc(OC)n2)cn1)c1ccnc(NS(=O)(=O)C2CC2)n1 (centres unmarked) [Example P159] | +++ (>60 fold (+++)) | 
15 | ≤ 100 nM | CCOc1cncc(-c2ccc(NC(=O)C(C)(CC)c3ccnc(NS(=O)(=O)C4CC4)n3)nc2)n1 (centres unmarked) [Example P163] | +++ (>60 fold (+++)) | 
16 | ≤ 100 nM | CCOc1cncc(-c2ccc(NC(=O)C(C)(C)c3cncc(NS(=O)(=O)C4CC4)n3)nc2)n1 [Example P195] | +++ (>60 fold (+++)) | 
